Test: recombinant barcode read abundance after kanamycin selection (control-corrected) (log10(CPM+1)); higher = more efficient recombination; sequences stand for … in AGTGCAGAGAAAATCGGCCAGTTTTCTCTGCCTGCAGTCCGCATGCCGT…AGATTTATGCAGCGGACTGCCTTTCTCCCAAAGTGATAAACCGGACAGTATCATGGACCGGTTTTCCCGGTAATCCGTATTTGCAAGGTTGGTTTCACT; site = the 11-nt target
How it was run: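 In a pooled screen in E. coli, targets were paired with target-binding loops of the IS621 bridge RNA. Each oligo carried a promoter, a target, a barcode and the first 104 bridge RNA bases driven by J23119, and was Gibson-cloned into a vector holding the remaining 73 bp and a T7-inducible recombinase before co-electroporation with a donor plasmid. Duplicate platings went onto chloramphenicol/ampicillin LB agar as the control or onto chloramphenicol/ampicillin/kanamycin with 0.1 mM IPTG. Recombination efficiency is the averaged, control-corrected count per million of barcodes at recombinant junctions, given as log10(CPM+1).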
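Further: IS621 recombinase and bridge RNA in Escherichia coli cells.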

Row | Sequence | recombinant barcode read abundance (log10)
1 | GGAATTCCTTGGGTTCTAACCTGTTGCCT (site GGAATACCTAG) | 0.129
2 | GGAATTCCTTGGGTTCTAACCTGTTGCCT (site GGAATCCCTAG) | 0
3 | GGAATTCCTTGGGTTCTAACCTGTTGCCT (site GGAATGCCTAG) | 0.0669
4 | GGAATTCCTTGGGTTCTAACCTGTTGCCT (site GGAATTCCTAG) | 0.0376
5 | GGACAATCTTGGGTTCTAACCTGTTGCCT (site GGACAATCTAG) | 1.53
6 | GGACAATCTTGGGTTCTAACCTGTTGCCT (site GGACCATCTAG) | 0.174
7 | GGACAATCTTGGGTTCTAACCTGTTGCCT (site GGACGATCTAG) | 0.376
8 | GGACAATCTTGGGTTCTAACCTGTTGCCT (site GGACTATCTAG) | 0.0608
9 | GGACATGCTTGGGTTCTAACCTGTTGCGT (site CGACATACTAC) | 0.219
10 | GGACATGCTTGGGTTCTAACCTGTTGCGT (site GGACATGCTAC) | 2.7
11 | GGACCGCCTTGGGTTCTAACCTGTTGCCT (site CGATCGCCTAG) | 0.129
12 | GGACCGCCTTGGGTTCTAACCTGTTGCCT (site GGACCGCCTAG) | 0.626
13 | GGACGAGCTTGGGTTCTAACCTGTTGCTG (site ATCTATACTAG) | 0.0905
14 | GGACGAGCTTGGGTTCTAACCTGTTGCTG (site GGACGAGCTCA) | 2.46
15 | GGACGGACTTGGGTTCTAACCTGTTGCCA (site GGACGGACTTG) | 1.68
16 | GGACGGACTTGGGTTCTAACCTGTTGCCA (site GGTCGGACTTG) | 0.417
17 | GGACTATCTTGGGTTCTAACCTGTTGCCT (site GGACAATCTAG) | 0.104
18 | GGACTATCTTGGGTTCTAACCTGTTGCCT (site GGACCATCTAG) | 0.297
19 | GGACTATCTTGGGTTCTAACCTGTTGCCT (site GGACGATCTAG) | 0.011
20 | GGACTATCTTGGGTTCTAACCTGTTGCCT (site GGACTATCTAG) | 1.18
21 | GGACTCACTTGGGTTCTAACCTGTTGCCT (site GGACTCACTAG) | 1.77
22 | GGACTCACTTGGGTTCTAACCTGTTGCCT (site GGATTCTCTAG) | 0.15
23 | GGAGAACCTTGGGTTCTAACCTGTTGCCT (site AGAGAACCTAG) | 1.85
24 | GGAGAACCTTGGGTTCTAACCTGTTGCCT (site CGAGAACCTAG) | 0.492
25 | GGAGAACCTTGGGTTCTAACCTGTTGCCT (site GGAGAACCTAG) | 2.48
26 | GGAGAACCTTGGGTTCTAACCTGTTGCCT (site TGAGAACCTAG) | 1.56

Row | Sequence | recombinant barcode read abundance (log10)
27 | GGAGAGGCTTGGGTTCTAACCTGTTGCCT (site GGAGAAGCTAG) | 0.893
28 | GGAGAGGCTTGGGTTCTAACCTGTTGCCT (site GGAGACGCTAG) | 0.143
29 | GGAGAGGCTTGGGTTCTAACCTGTTGCCT (site GGAGAGGCTAG) | 1.54
30 | GGAGAGGCTTGGGTTCTAACCTGTTGCCT (site GGAGATGCTAG) | 0.0967
31 | GGAGATGCTTGGGTTCTAACCTGTTGCCT (site GGAGAAGCTAG) | 0.783
32 | GGAGATGCTTGGGTTCTAACCTGTTGCCT (site GGAGACGCTAG) | 0.291
33 | GGAGATGCTTGGGTTCTAACCTGTTGCCT (site GGAGAGGCTAG) | 0.226
34 | GGAGATGCTTGGGTTCTAACCTGTTGCCT (site GGAGATGCTAG) | 1.74
35 | GGAGCAGCTTGGGTTCTAACCTGTTGCCT (site GGAGCACCTAG) | 0.223
36 | GGAGCAGCTTGGGTTCTAACCTGTTGCCT (site GGAGCAGCTAG) | 1.16
37 | GGAGCCTCTTGGGTTCTAACCTGTTGCTC (site GGAGCCTCTGA) | 1.7
38 | GGAGCCTCTTGGGTTCTAACCTGTTGCTC (site GGGGCCTCTCA) | 0.177
39 | GGAGCTCCTTGGGTTCTAACCTGTTGCCG (site ACTCACACTAA) | 0.152
40 | GGAGCTCCTTGGGTTCTAACCTGTTGCCG (site GGAGCTCCTCG) | 0.846
41 | GGAGGGTCTTGGGTTCTAACCTGTTGCTT (site AGAGGGTCTAA) | 0.693
42 | GGAGGGTCTTGGGTTCTAACCTGTTGCTT (site CGAGGGTCTAA) | 0.229
43 | GGAGGGTCTTGGGTTCTAACCTGTTGCTT (site GGAGGGTCTAA) | 1.72
44 | GGAGGGTCTTGGGTTCTAACCTGTTGCTT (site TGAGGGTCTAA) | 0.292
45 | GGATACACTTGGGTTCTAACCTGTTGCCG (site GGATACACTCG) | 1.66
46 | GGATACACTTGGGTTCTAACCTGTTGCCG (site TAGACGGCTAT) | 0.342
47 | GGATACACTTGGGTTCTAACCTGTTGCGT (site GGATACACTAC) | 2.76
48 | GGATACACTTGGGTTCTAACCTGTTGCGT (site GGATAGACTAC) | 0.0769
49 | GGATCCACTTGGGTTCTAACCTGTTGCCT (site AGATCCACTAG) | 0.306
50 | GGATCCACTTGGGTTCTAACCTGTTGCCT (site CGATCCACTAG) | 0.0861
51 | GGATCCACTTGGGTTCTAACCTGTTGCCT (site GGATCCACTAG) | 0.399
52 | GGATCCACTTGGGTTCTAACCTGTTGCCT (site TGATCCACTAG) | 0.139

Row | Sequence | recombinant barcode read abundance (log10)
53 | GGATCCTCTTGGGTTCTAACCTGTTGCAT (site GGATCCTCTAT) | 1.69
54 | GGATCCTCTTGGGTTCTAACCTGTTGCAT (site GGCTCCTCTAT) | 0.149
55 | GGATCTACTTGGGTTCTAACCTGTTGCCT (site GAATCTACTAG) | 0.174
56 | GGATCTACTTGGGTTCTAACCTGTTGCCT (site GCATCTACTAG) | 0.514
57 | GGATCTACTTGGGTTCTAACCTGTTGCCT (site GGATCTACTAG) | 0.235
58 | GGATCTACTTGGGTTCTAACCTGTTGCCT (site GTATCTACTAG) | 0.0262
59 | GGATTGTCTTGGGTTCTAACCTGTTGCTT (site GGATTGTCTAA) | 0.742
60 | GGATTGTCTTGGGTTCTAACCTGTTGCTT (site GGCTAGTCTAA) | 0.0862
61 | GGCACAACTTGGGTTCTAACCTGTTGCCT (site GGCACAACTAG) | 0.804
62 | GGCACAACTTGGGTTCTAACCTGTTGCCT (site GGCACCACTAG) | 0.0796
63 | GGCACAACTTGGGTTCTAACCTGTTGCCT (site GGCACGACTAG) | 0.262
64 | GGCACAACTTGGGTTCTAACCTGTTGCCT (site GGCACTACTAG) | 0.0426
65 | GGCACAGCTTGGGTTCTAACCTGTTGCCT (site GGCACAGCTAG) | 0
66 | GGCACAGCTTGGGTTCTAACCTGTTGCCT (site GGCACCGCTAG) | 0.171
67 | GGCACAGCTTGGGTTCTAACCTGTTGCCT (site GGCACGGCTAG) | 0.067
68 | GGCACAGCTTGGGTTCTAACCTGTTGCCT (site GGCACTGCTAG) | 0.0566
69 | GGCACCACTTGGGTTCTAACCTGTTGCCG (site GGCACCACTCG) | 0.295
70 | GGCACCACTTGGGTTCTAACCTGTTGCCG (site TCTTGACCTAA) | 0.251
71 | GGCACCACTTGGGTTCTAACCTGTTGCCT (site GGCACAACTAG) | 0.0402
72 | GGCACCACTTGGGTTCTAACCTGTTGCCT (site GGCACCACTAG) | 0.722
73 | GGCACCACTTGGGTTCTAACCTGTTGCCT (site GGCACGACTAG) | 0.0916
74 | GGCACCACTTGGGTTCTAACCTGTTGCCT (site GGCACTACTAG) | 0.0174
75 | GGCACTACTTGGGTTCTAACCTGTTGCCT (site GGCACAACTAG) | 0.0867
76 | GGCACTACTTGGGTTCTAACCTGTTGCCT (site GGCACCACTAG) | 0.716
77 | GGCACTACTTGGGTTCTAACCTGTTGCCT (site GGCACGACTAG) | 0.166

Reference: the supplement of paper PMC11208160
